ChEMBL document CHEMBL1949649, “5-sulfonyl-benzimidazoles as selective CB2 agonists-part 2” (Bioorg Med Chem Lett, 2012)

Target: Cannabinoid receptor 2 (Homo sapiens, UniProt P34972)
Sequence (P34972 whole entry): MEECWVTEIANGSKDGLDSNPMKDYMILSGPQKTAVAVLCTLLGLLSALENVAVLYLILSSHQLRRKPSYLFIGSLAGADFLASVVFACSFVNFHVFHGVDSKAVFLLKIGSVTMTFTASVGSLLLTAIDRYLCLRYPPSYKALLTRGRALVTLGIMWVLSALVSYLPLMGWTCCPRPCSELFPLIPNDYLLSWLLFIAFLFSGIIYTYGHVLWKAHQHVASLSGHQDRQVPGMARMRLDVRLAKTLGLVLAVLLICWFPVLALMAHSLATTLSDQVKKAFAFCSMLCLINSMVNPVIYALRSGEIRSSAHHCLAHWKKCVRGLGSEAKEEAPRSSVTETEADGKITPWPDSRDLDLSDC
Assay: Agonist activity at human CB2 receptor
Assay type: functional
Settings: not given
`CC(C)(C)c1nc2cc(S(=O)(=O)CC3CC3)ccc2n1CC1CCS(=O)(=O)CC1` gave an EC50 of 8.4 nM. `COCCOc1cc(S(=O)(=O)c2ccc3c(c2)nc(C(C)(C)C)n3CC2CCOCC2)ccn1` showed an EC50 of 1.3 nM. With `COCCCOc1cc(S(=O)(=O)c2ccc3c(c2)nc(C(C)(C)C)n3CC2CCOCC2)ccn1` the EC50 was 0.5 nM. For `CC(C)(C)c1nc2cc(S(=O)(=O)c3nccs3)ccc2n1CC1CCN(C=O)CC1`, the EC50 was 8.4 nM. Molecule `CC(=O)N1CCC(Cn2c(C(C)(C)C)nc3cc(S(=O)(=O)c4ccc(F)cc4)ccc32)CC1` has an EC50 of 2.9 nM. Work on `CCS(=O)(=O)c1ccc2c(c1)nc(C(C)(C)C)n2CC1CCN(C(C)=O)CC1` yielded an EC50 of 8.4 nM. With `CC(=O)N1CCC(Cn2c(C(C)(C)C)nc3cc(S(=O)(=O)c4ccncc4)ccc32)CC1` the EC50 was 4.6 nM. For `CCS(=O)(=O)c1ccc2c(c1)nc(C(C)(C)C)n2CC1CCN(C=O)CC1`, the EC50 was 23 nM.

Tested on: Rattus norvegicus
Assay: Toxicity in rat assessed as decrease in body temperature at 10 mg/kg, ip by modified tetrad test
Assay type: organism-based
Design: dose 10 mg/kg, route intraperitoneal
Settings: in vivo
In the case of `CC(C)(C)c1nc2cc(S(=O)(=O)c3nccs3)ccc2n1CC1CCN(C=O)CC1`, the Activity is reported as “Toxic”. In the case of `CC(=O)N1CCC(Cn2c(C(C)(C)C)nc3cc(S(=O)(=O)c4ccc(F)cc4)ccc32)CC1`, the Activity is reported as “Toxic”.

Tested on: not listed separately
Assay: Drug metabolism in human liver microsomes after 15 mins
Assay type: ADME, Microsome
Settings: read-out: Drug metabolism
Molecule `CC(C)(C)c1nc2cc(S(=O)(=O)CC3CC3)ccc2n1CC1CCS(=O)(=O)CC1` has a metabolised at 0.25 h of 2%. Molecule `COCCOc1cc(S(=O)(=O)c2ccc3c(c2)nc(C(C)(C)C)n3CC2CCOCC2)ccn1` has a metabolised at 0.25 h of 53%. In the case of `COCCCOc1cc(S(=O)(=O)c2ccc3c(c2)nc(C(C)(C)C)n3CC2CCOCC2)ccn1`, the metabolised at 0.25 h is reported as 100%. In the case of `CC(=O)N1CCC(Cn2c(C(C)(C)C)nc3cc(S(=O)(=O)c4ccc(F)cc4)ccc32)CC1`, the metabolised at 0.25 h is reported as 8%. `CCS(=O)(=O)c1ccc2c(c1)nc(C(C)(C)C)n2CC1CCN(C(C)=O)CC1` showed a metabolised at 0.25 h of 13%. `CC(=O)N1CCC(Cn2c(C(C)(C)C)nc3cc(S(=O)(=O)c4ccncc4)ccc32)CC1` showed a metabolised at 0.25 h of 29%. Molecule `CCS(=O)(=O)c1ccc2c(c1)nc(C(C)(C)C)n2CC1CCN(C=O)CC1` has a metabolised at 0.25 h of 7%.

Target: Cannabinoid receptor 1 (Homo sapiens, UniProt P21554)
Sequence (P21554 whole entry): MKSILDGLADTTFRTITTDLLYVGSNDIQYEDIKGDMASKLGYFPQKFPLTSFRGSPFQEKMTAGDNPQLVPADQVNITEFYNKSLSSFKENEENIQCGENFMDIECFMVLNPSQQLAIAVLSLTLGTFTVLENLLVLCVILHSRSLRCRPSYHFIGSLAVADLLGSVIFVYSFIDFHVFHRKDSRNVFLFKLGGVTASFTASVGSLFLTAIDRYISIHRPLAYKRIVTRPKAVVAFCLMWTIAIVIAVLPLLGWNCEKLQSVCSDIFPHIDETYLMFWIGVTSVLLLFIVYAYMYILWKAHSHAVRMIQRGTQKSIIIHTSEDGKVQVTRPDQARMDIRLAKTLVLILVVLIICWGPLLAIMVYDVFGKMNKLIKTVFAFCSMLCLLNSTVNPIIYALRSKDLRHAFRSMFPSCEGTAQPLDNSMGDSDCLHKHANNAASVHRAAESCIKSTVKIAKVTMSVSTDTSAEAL
Assay: Agonist activity at human CB1 receptor
Assay type: functional
Settings: not given
For `CC(C)(C)c1nc2cc(S(=O)(=O)CC3CC3)ccc2n1CC1CCS(=O)(=O)CC1`, the EC50 was 2680 nM. In the case of `CC(C)(C)c1nc2cc(S(=O)(=O)c3nccs3)ccc2n1CC1CCN(C=O)CC1`, the EC50 is reported as 321 nM. With `CC(=O)N1CCC(Cn2c(C(C)(C)C)nc3cc(S(=O)(=O)c4ccc(F)cc4)ccc32)CC1` the EC50 was > 10000 nM. In the case of `CCS(=O)(=O)c1ccc2c(c1)nc(C(C)(C)C)n2CC1CCN(C(C)=O)CC1`, the EC50 is reported as > 10000 nM. In the case of `CC(=O)N1CCC(Cn2c(C(C)(C)C)nc3cc(S(=O)(=O)c4ccncc4)ccc32)CC1`, the EC50 is reported as > 10000 nM. For `CCS(=O)(=O)c1ccc2c(c1)nc(C(C)(C)C)n2CC1CCN(C=O)CC1`, the EC50 was > 10000 nM.
